US20050096350A1, “Halo substituted benzo[b]thiophenes as therapeutic agents” (priority 2003, published 2005)
pIC50: −log10 of the molar value.

Target: T1, PI3Kγ (purified recombinant p101/p110γ protein) (Homo sapiens, UniProt P48736)
T1 construct: HA; made in house; host or cells: Spodoptera frugiperda Sf9 cells (baculovirus coinfection)
Assay: PI3Kγ in vitro kinase assay
Assay type: biochemical
Settings: 20 μM ATP, 25 μM PIP2, G protein β1/γ2 subunits
Method: Spodtera frugiperda cells, grown in ESF921 media, were coinfected with baculovirus expressing a glu-tagged p101 and baculovirus expressing an HA-tagged […], at a 3:1 ratio of p101 baculovirus to p110γ baculovirus. Sf9 cells were grown to 1×10^7 total cells/mL in 10 L bioreactors and harvested 48-72 hours post infection. Samples of infected cells were then tested for expression of p101/p110γ PI3 kinase by immunoprecipitation and Western Blot analysis methods (see below).
To purify PI3Kγ, 4 volumes of room temperature hypotonic lysis buffer (1 mM MgCl2, 1 mM DTT, 5 mM EGTA, 1 mM Pefabloc, 0.5 μM aprotinin, 5 μM leupeptin, 2 μM pepstatin, 5 μM E64, pH 8) per gram of cell paste, was poured onto frozen cell pellets with stirring, then lysed in a nitrogen “bomb” at 400 psi (599HC T316, Parr Instrument Co, Moline, Ill.). NaCl was added to 150 mM, and sodium cholate was added to 1% and mixed for another 45 minutes. The lysates were clarified by centrifugation for 25 minutes at 14,000 rpm. The lysates were then loaded over anti-glu-linked Protein-G Sepaharose beads (Covance Research Products, Richmond, Calif.) using 20 mL resin/50 g cell paste. The column was washed with 15 volumes of wash buffer (1 mM DTT, 0.2 mM EGTA, 1 mM Pefabloc, 0.5 μM aprotinin, 5 μM leupeptin, 2 μM pepstatin, 5 μM E64, 150 mM NaCl, 1% sodium cholate, pH 8). PI3Kγ was eluted with 6 column volumes of wash buffer that contain 100 μg/mL of a peptide that competes for binding of the glu tag. The column fractions with the eluted protein (determined by taking OD280 readings) were collected and dialyzed in 0.2 mM EGTA, 1 mM DTT, 1 mM Pefabloc, 5 μM leupeptin, 0.5% sodium cholate, 150 mM NaCl, and 50% glycerol, pH 8. The fractions were stored at −80° C. until further use.
Spodtera frugiperda cells were coinfected with baculovirus expressing a glu-tagged G protein β1 and baculovirus expressing a G protein β2, at a 1:1 ratio of glu-tagged G protein β1 baculovirus to G protein β2 baculovirus. Sf9 cells are grown in 10 L bioreactors and harvested 48-72 hours post infection. Samples of infected cells were tested for G protein β1/β2 expression by Western Blot analysis, as described below. Cell lysates were homogenized and loaded onto a column of glu-tagged beads as in Biological Example 1 and competed off the column with a glu peptide and processed as described in Biological Example 1.
The inhibitory properties of the compounds in Table 1 were assayed in an in vitro PI3K assay. In a 96-well polypropylene plate, each well was spotted with 2 μL of 50 times the desired final concentration of compound in DMSO. Purified recombinant p101/p110γ protein (0.03 μg; ˜2.7 nM) and G protein β1/γ2 subunits (0.09 μg; ˜57.7 nM) for each reaction was combined in the assay buffer (30 mM HEPES, 100 mM NaCl, 1 mM EGTA, and 1 mM DTT). ATP and [γ-^32P-ATP] (0.09 μCi) were added to this mixture so that the final ATP concentration in the reaction was 20 μM. Lipid micelles were formed by sonicating phosphatidylinositol-4,5-diphosphate (PIP2), phosphatidylethanolamine (PE), and Na-cholate in the assay buffer for 10 minutes, adding MgCl2 and incubating on ice for 20 minutes, for final concentrations of 25 μM PIP2, 300 μM PE, 0.02% Na-cholate, and 10 mM MgCl2 in the reaction. The reactions were started by adding equal volumes lipid and enzyme mixture in a total volume of 50 μL, allowed to run for 20 minutes at room temperature, and stopped with 100 μL 75 mM H3PO4. The lipid product was transferred to a glass fiber filter plate and washed with 75 mM H3PO4 several times. The presence of radioactive lipid product (PIP3) was measured by adding Wallac Optiphase mix to each well and counting in a Wallac 1450 Trilux plate reader (PerkinElmer Life Sciences Inc., Boston, Mass. 02118). The IC50 for each compound tested is reported in μM in the Tables above.

T1 sequence (P48736 whole entry, species assumed): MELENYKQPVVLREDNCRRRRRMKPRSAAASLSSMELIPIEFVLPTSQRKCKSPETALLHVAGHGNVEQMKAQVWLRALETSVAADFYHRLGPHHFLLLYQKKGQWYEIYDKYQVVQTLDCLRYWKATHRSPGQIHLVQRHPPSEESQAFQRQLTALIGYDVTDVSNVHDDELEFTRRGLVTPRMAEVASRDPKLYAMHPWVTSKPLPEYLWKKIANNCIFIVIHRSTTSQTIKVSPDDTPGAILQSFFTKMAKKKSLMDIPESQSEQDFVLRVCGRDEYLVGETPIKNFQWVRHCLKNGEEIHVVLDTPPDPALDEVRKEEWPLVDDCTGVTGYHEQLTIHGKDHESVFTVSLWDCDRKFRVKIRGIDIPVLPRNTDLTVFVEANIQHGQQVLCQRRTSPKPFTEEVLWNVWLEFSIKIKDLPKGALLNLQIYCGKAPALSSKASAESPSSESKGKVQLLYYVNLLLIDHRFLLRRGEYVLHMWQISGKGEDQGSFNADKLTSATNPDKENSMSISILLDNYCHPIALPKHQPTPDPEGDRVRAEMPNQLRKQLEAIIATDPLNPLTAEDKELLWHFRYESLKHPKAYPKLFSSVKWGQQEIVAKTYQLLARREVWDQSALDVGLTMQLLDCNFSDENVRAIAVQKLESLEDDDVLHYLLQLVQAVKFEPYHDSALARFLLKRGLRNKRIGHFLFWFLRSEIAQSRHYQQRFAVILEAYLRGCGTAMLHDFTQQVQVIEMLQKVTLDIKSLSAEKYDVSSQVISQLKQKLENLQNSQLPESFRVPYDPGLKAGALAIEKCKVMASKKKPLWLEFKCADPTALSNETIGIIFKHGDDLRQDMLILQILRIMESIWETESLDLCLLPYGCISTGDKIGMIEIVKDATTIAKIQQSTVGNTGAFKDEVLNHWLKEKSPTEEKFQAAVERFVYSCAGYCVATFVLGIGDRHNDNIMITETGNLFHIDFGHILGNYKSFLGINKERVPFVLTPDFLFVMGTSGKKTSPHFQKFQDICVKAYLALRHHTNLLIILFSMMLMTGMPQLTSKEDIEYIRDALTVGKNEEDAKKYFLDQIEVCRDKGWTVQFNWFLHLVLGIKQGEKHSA
T1 sequence (Q8WYR1 whole entry partner, species assumed): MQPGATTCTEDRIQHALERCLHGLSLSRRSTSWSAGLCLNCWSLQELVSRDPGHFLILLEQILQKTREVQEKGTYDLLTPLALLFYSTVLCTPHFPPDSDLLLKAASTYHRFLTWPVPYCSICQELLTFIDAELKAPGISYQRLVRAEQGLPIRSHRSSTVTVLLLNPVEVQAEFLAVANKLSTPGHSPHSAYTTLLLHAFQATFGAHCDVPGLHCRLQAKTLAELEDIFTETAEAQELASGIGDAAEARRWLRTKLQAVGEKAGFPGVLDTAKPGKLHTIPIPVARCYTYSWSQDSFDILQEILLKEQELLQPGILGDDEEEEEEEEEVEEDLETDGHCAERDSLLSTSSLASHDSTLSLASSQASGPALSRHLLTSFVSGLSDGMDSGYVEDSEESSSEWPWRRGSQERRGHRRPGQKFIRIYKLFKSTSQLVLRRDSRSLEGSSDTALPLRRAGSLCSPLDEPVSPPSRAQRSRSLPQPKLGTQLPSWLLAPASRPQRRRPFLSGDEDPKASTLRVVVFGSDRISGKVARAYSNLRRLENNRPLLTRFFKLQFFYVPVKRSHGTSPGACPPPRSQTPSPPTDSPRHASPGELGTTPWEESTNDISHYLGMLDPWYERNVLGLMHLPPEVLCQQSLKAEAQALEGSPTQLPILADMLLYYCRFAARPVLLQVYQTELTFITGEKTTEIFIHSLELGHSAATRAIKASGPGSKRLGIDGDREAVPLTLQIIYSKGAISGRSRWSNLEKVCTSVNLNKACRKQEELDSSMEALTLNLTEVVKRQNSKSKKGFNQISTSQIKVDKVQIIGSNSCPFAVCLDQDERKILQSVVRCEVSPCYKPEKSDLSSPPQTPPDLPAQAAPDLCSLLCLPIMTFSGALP

| Molecule | pIC50 | other results |
| --- | --- | --- |
| COc1ccc2sc(C(=O)Nc3nnn[nH]3)c(Sc3ccc(CCC(=O)O)cc3)c2c1F [Example 36, 3-{4-[4-Fluoro-5-methoxy-2-(1H-tetrazol-5-ylcarbamoyl)-benzo[b]thiophen-3-ylsulfanyl]-phenyl}-propionic acid] | 5.14 | – |
| 6-Fluoro-5-methoxy-3-phenoxy-benzo[b]thiophene-2-carboxylic acid iminomethyl-amide [Example 3] | 7.61 | – |
| CCc1cccc(Oc2c(C(=O)Nc3nn[nH]n3)sc3cc(F)c(OC)cc23)c1 [Example 5, 3-(3-Ethyl-phenoxy)-6-fluoro-5-methoxy-benzo[b]thiophene-2-carboxylic acid (2H-tetrazol-5-yl)-amide] | 7.20 | – |
| COc1ccc2sc(C(=O)Nc3nnn[nH]3)c(Sc3cccc(Cl)c3)c2c1F [Example 31, 3-(3-Chloro-phenylsulfanyl)-4-fluoro-5-methoxy-benzo[b]thiophene-2-carboxylic acid (1H-tetrazol-5-yl)-amide] | 5.23 | – |
| 4-Fluoro-5-methoxy-3-(3-trifluoromethyl-phenylsulfanyl)-benzo[b]thiophene-2-carboxylic acid (1H-tetrazol-5-yl)-amide [Example 29] | 4.96 | – |
| COc1cccc(Sc2c(C(=O)Nc3nnn[nH]3)sc3ccc(OC)c(F)c23)c1 [Example 32, 4-Fluoro-5-methoxy-3-(3-methoxy-phenylsulfanyl)-benzo[b]thiophene-2-carboxylic acid (1H-tetrazol-5-yl)-amide] | 5.23 | – |
| COc1ccc2sc(C(=O)Nc3nnn[nH]3)c(SC3CCCC3)c2c1F [Example 38, 3-Cyclopentylsulfanyl-4-fluoro-5-methoxy-benzo[b]thiophene-2-carboxylic acid (1H-tetrazol-5-yl)-amide] | 6.72 | – |
| COC(=O)CCc1ccc(Sc2c(C(=O)Nc3nnn[nH]3)sc3ccc(OC)c(F)c23)cc1 [Example 28, 3-{4-[4-Fluoro-5-methoxy-2-(1H-tetrazol-5-ylcarbamoyl)-benzo[b]thiophen-3-ylsulfanyl]-phenyl}-propionic acid methyl ester] | 4.83 | – |
| COc1cc2c(Oc3ccc(Cl)cc3)c(C(=O)Nc3nn[nH]n3)sc2cc1F [Example 1, 3-(4-Chloro-phenoxy)-6-fluoro-5-methoxy-benzo[b]thiophene-2-carboxylic acid (2H-tetrazol-5-yl)-amide] | 7.12 | – |
| COc1cc2c(Oc3ccc(C(C)C)cc3)c(C(=O)Nc3nn[nH]n3)sc2cc1F [Example 6, 6-Fluoro-3-(4-isopropyl-phenoxy)-5-methoxy-benzo[b]thiophene-2-carboxylic acid (2H-tetrazol-5-yl)-amide] | 7.87 | – |
| 3-Cyclohexylsulfanyl-6-fluoro-5-methyl-benzo[b]thiophene-2-carboxylic acid (1H-tetrazol-5-yl)-amide [Example 41] | – | pIC50 (table b291): 7.92 |
| 3-[2-(Acetyl-methyl-amino)-1-phenyl-propylsulfanyl]-4-fluoro-5-methoxy-benzo[b]thiophene-2-carboxylic acid (1H-tetrazol-5-yl)-amide [Example 30] | 4.70 | – |
| COc1cc2c(Oc3ccc(C4CCCCC4)cc3)c(C(=O)Nc3nn[nH]n3)sc2cc1Cl [Example 44, 6-Chloro-3-(4-Cyclohexyl-phenoxy)-5-methoxy-benzo[b]thiophene-2-carboxylic acid (2H-tetrazol-5-yl)-amide] | – | pIC50 (table b298): 6.96 |
| COC(=O)Cc1ccc(Sc2c(C(=O)Nc3nnn[nH]3)sc3ccc(OC)c(F)c23)cc1 [Example 27, {4-[4-Fluoro-5-methoxy-2-(1H-tetrazol-5-ylcarbamoyl)-benzo[b]thiophen-3-ylsulfanyl]-phenyl}-acetic acid methyl ester] | 4.85 | – |
| COc1cc2c(OC3CCCCC3)c(C(=O)Nc3nn[nH]n3)sc2cc1F [Example 7, 3-Cyclohexyloxy-6-fluoro-5-methoxy-benzo[b]thiophene-2-carboxylic acid (2H-tetrazol-5-yl)-amide] | 7.98 | – |
